The text below walks through data of PubChem BioAssay AID1259407 (Chemical Carcinogenesis Research Information System (CCRIS), 2018).

The data set has as its system CCRIS mutagenicity, Ames/micronucleus/aberration tests. Briefly: CCRIS mutagenicity studies. The following applies: Test System: AMES SALMONELLA TYPHIMURIUM
Setting [1] is: Strain/Indicator: TA97, Metabolic Activation: NONE, Method: PREINCUBATION
Where [2] appears, read: Strain/Indicator: TA98, Metabolic Activation: NONE, Method: PREINCUBATION
Where [3] appears, read: Strain/Indicator: TA100, Metabolic Activation: NONE, Method: PREINCUBATION
The mark [4] stands for this setting: Strain/Indicator: TA1535, Metabolic Activation: NONE, Method: PREINCUBATION

The structures appear in SMILES notation. Calls of active or inactive are those of the source. How the calls were made is not given here.

For `CCCCCCCCCC`, the mutagenic call is “inactive; negative” (Strain/Indicator: TA97, Metabolic Activation: HAMSTER, LIVER, S-9, AROCLOR 1254 (10 OR 30%), Method: PREINCUBATION); “inactive; negative” under setting [1]; “inactive; negative” (Strain/Indicator: TA97, Metabolic Activation: RAT, LIVER, S-9, AROCLOR 1254 (5%), Method: PREINCUBATION); “inactive; negative” (Strain/Indicator: TA97, Metabolic Activation: RAT, LIVER, S-9, AROCLOR 1254 (10 OR 30%), Method: PREINCUBATION); “inactive; negative” (Strain/Indicator: TA98, Metabolic Activation: HAMSTER, LIVER, S-9, AROCLOR 1254 (10 OR 30%), Method: PREINCUBATION); “inactive; negative” under setting [2]. Also, the mutagenic call (Strain/Indicator: TA98, Metabolic Activation: RAT, LIVER, S-9, AROCLOR 1254 (10 OR 30%), Method: PREINCUBATION) is “inactive; negative”; the mutagenic call (Strain/Indicator: TA100, Metabolic Activation: HAMSTER, LIVER, S-9, AROCLOR 1254 (10 OR 30%), Method: PREINCUBATION) is “inactive; negative”; the mutagenic call under setting [3] is “inactive; negative”; the mutagenic call (Strain/Indicator: TA100, Metabolic Activation: RAT, LIVER, S-9, AROCLOR 1254 (10 OR 30%), Method: PREINCUBATION) is “inactive; negative”; the mutagenic call (Strain/Indicator: TA1535, Metabolic Activation: HAMSTER, LIVER, S-9, AROCLOR 1254 (10 OR 30%), Method: PREINCUBATION) was “inactive; negative”; the mutagenic call under setting [4] is “inactive; negative”. For the same compound, the mutagenic call is “inactive; negative” (Strain/Indicator: TA1535, Metabolic Activation: RAT, LIVER, S-9, AROCLOR 1254 (10 OR 30%), Method: PREINCUBATION); “inactive; negative” (Strain/Indicator: TA1537, Metabolic Activation: HAMSTER, LIVER, S-9, AROCLOR 1254 (30%), Method: PREINCUBATION); “inactive; negative” (Strain/Indicator: TA1537, Metabolic Activation: NONE, Method: PREINCUBATION); “inactive; negative” (Strain/Indicator: TA1537, Metabolic Activation: RAT, LIVER, S-9, AROCLOR 1254 (5 OR 10%), Method: PREINCUBATION); “inactive; negative” (Strain/Indicator: TA1537, Metabolic Activation: RAT, LIVER, S-9, AROCLOR 1254 (30%), Method: PREINCUBATION).
Take `CCCCCCCCCCCC[S][Sn]([CH2]CCC)([CH2]CCC)[S]CCCCCCCCCCCC`: the mutagenic call is “inactive; negative” (Strain/Indicator: TA97, Metabolic Activation: HAMSTER, LIVER, S-9, AROCLOR 1254 (10%), Method: PREINCUBATION); “inactive; negative” (Strain/Indicator: TA97, Metabolic Activation: HAMSTER, LIVER, S-9, AROCLOR 1254 (30%), Method: PREINCUBATION); “inactive; negative” under setting [1]; “inactive; negative” (Strain/Indicator: TA97, Metabolic Activation: RAT, LIVER, S-9, AROCLOR 1254 (10%), Method: PREINCUBATION); “inactive; negative” (Strain/Indicator: TA97, Metabolic Activation: RAT, LIVER, S-9, AROCLOR 1254 (30%), Method: PREINCUBATION); “inactive; negative” (Strain/Indicator: TA98, Metabolic Activation: HAMSTER, LIVER, S-9, AROCLOR 1254 (10%), Method: PREINCUBATION). The mutagenic call is “inactive; negative” (Strain/Indicator: TA98, Metabolic Activation: HAMSTER, LIVER, S-9, AROCLOR 1254 (30%), Method: PREINCUBATION); “inactive; negative” under setting [2]; “inactive; negative” (Strain/Indicator: TA98, Metabolic Activation: RAT, LIVER, S-9, AROCLOR 1254 (10%), Method: PREINCUBATION); “inactive; negative” (Strain/Indicator: TA98, Metabolic Activation: RAT, LIVER, S-9, AROCLOR 1254 (30%), Method: PREINCUBATION); “inactive; negative” (Strain/Indicator: TA100, Metabolic Activation: HAMSTER, LIVER, S-9, AROCLOR 1254 (10%), Method: PREINCUBATION); “inactive; negative” (Strain/Indicator: TA100, Metabolic Activation: HAMSTER, LIVER, S-9, AROCLOR 1254 (30%), Method: PREINCUBATION). The mutagenic call under setting [3] is “inactive; negative”; the mutagenic call (Strain/Indicator: TA100, Metabolic Activation: RAT, LIVER, S-9, AROCLOR 1254 (10%), Method: PREINCUBATION) is “inactive; negative”; the mutagenic call (Strain/Indicator: TA100, Metabolic Activation: RAT, LIVER, S-9, AROCLOR 1254 (30%), Method: PREINCUBATION) was “inactive; negative”; the mutagenic call (Strain/Indicator: TA1535, Metabolic Activation: HAMSTER, LIVER, S-9, AROCLOR 1254 (10%), Method: PREINCUBATION) was “inactive; negative”; the mutagenic call (Strain/Indicator: TA1535, Metabolic Activation: HAMSTER, LIVER, S-9, AROCLOR 1254 (30%), Method: PREINCUBATION) is “inactive; negative”; the mutagenic call under setting [4] was “inactive; negative”. The mutagenic call is “inactive; negative” (Strain/Indicator: TA1535, Metabolic Activation: RAT, LIVER, S-9, AROCLOR 1254 (10%), Method: PREINCUBATION) and “inactive; negative” (Strain/Indicator: TA1535, Metabolic Activation: RAT, LIVER, S-9, AROCLOR 1254 (30%), Method: PREINCUBATION).
`c1ccc2c(c1)-c1cc3c(cc1C1NC21)-c1ccccc1C1NC31` (stereo not drawn): the mutagenic call (Strain/Indicator: TA100, Metabolic Activation: NONE, Method: STANDARD PLATE) was “active; positive”.
